{
  "source": "patent EP0366273A1",
  "about": "“Benzopyran derivatives with smooth muscle relaxant activity” (BEECHAM GROUP PLC, priority 1988, dated 1990)",
  "key": {"[1]": {"system": "guinea pig tracheal spiral preparations", "test": "Bronchodilation in vitro; guinea pig tracheal spiral preparations", "format": "cell-based", "conditions": "relaxation relative to total relaxation evoked by 10⁻³M isoprenaline", "method": "(a) Bronchodilation in vitro; guinea pig tracheal spiral preparations.\nMale guinea pigs (300-600g) were stunned by a blow to the head and bled from the carotid artery. The trachea was exposed, dissected free of connective tissue, and transferred to oxygenated krebs solution at 37°C. Next, spirals (2 per trachea) were prepared by cutting the whole trachea spirally along its longitudinal axis and then dividing this spiral lengthwise. Each preparation was mounted, using silk thread, in a 10ml organ bath filled with krebs solution at 37°C and bubbled with 5% CO₂ with O₂. The resting tension of the preparations was set at 2g and changes in muscle tension were monitored isometrically by means of a UFI (2oz) force and displacement transducer (Ormed Ltd) connected to a Linseis pen recorder. […] During this equilibration period the preparations were washed by upward displacement at 15 minute intervals and, if necessary, the resting tension was readjusted to 2g using a mechanical micromanipulator system.\nOnce a steady resting tension had been obtained, the preparations were dosed cumulatively with the test compound (10⁻⁸-2x10⁻⁵M), and finally a maximum relaxation achieved by addition of 10⁻³M isoprenaline. The fall in tension evoked by the test compound was expressed as a percentage of the total relaxation evoked in the presence of 10⁻³M isoprenaline. […]"}, "[2]": {"system": "Spontaneously hypertensive rats", "test": "Blood pressure lowering activity, tail cuff method", "format": "in vivo", "conditions": "dose 1 mg/kg, initial blood pressure 265 ± 8 mmHg, 6 rats", "method": "Blood Pressure Lowering Activity\nSystolic blood pressures were recorded by a modification of the tail cuff method described by I.M. Claxton, M.G. Palfreyman, R.H. Poyser, R.L. Whiting, European Journal of Pharmacology, 37, 179 (1976). A W+W BP recorder, model 8005 was used to display pulses.Prior to all measurements rats were placed in a heated environment (33.5 ± 0.5°C) before transfer to a restraining cage. Each determination of blood pressure was the mean of at least 6 readings. Spontaneously hypertensive rats (ages 12-18 weeks) with systolic blood pressures >180 mmHg were considered hypertensive."}},
  "data": [
    {"smiles": "CC1(C)Oc2ccc(C#N)cc2C(N2CCCC2=O)C1=O", "note": "(centres unmarked) [Example 1, 6-Cyano-3,4-dihydro-2,2 dimethyl-4-(2-oxopyrrolidin-1-yl)-2H-1-benzopyran-3-one]", "values": [
      {"measurement": "Intrinsic Activity", "setting": "[1]", "result": 0.89},
      {"measurement": "% Change in Systolic Blood Pressure", "setting": "[2]; 1 h post dose", "result": "-27 ± 5 (6 rats) %"},
      {"measurement": "% Change in Systolic Blood Pressure", "setting": "[2]; 2 h post dose", "result": "-24 ± 1 (6 rats) %"},
      {"measurement": "% Change in Systolic Blood Pressure", "setting": "[2]; 4 h post dose", "result": "-19 ± 6 (6 rats) %"},
      {"measurement": "% Change in Systolic Blood Pressure", "setting": "[2]; 6 h post dose", "result": "-25 ± 5 (6 rats) %"}
    ]}
  ]
}
